Earlier results as cited in PubChem BioAssay AID1259409 (Chemical Carcinogenesis Research Information System (CCRIS), 2018).

Test system: rodent chemically induced tumor inhibition, incidence and multiplicity
Assay: CCRIS tumor inhibitor studies
Details: Carcinogen: BENZO[A]PYRENE; 50-32-8; Dose [Inhibitor]: 0.03 MMOL/G OF DIET DAILY STARTING 7 D BEFORE AND CONTINUING THROUGH 3 D AFTER CARCINOGEN TREATMENT FOLLOWED BY OBSERVAT; Route [Inhibitor]: ORAL; Species: MOUSE; Strain/Sex: ICR/FEMALE; Target Tissue: Type of Lesion: FORESTOMACH: NEOPLASM; Dose [Carcinogen]: 1 MG IN 0.2 ML CORN OIL 2/WK FOR 4 WK; Promoter: NONE USED

**Q.** For CC(C)(C)c1cc(Cc2cc(C(C)(C)C)c(O)c(C(C)(C)C)c2)cc(C(C)(C)C)c1O, which “tumour outcome (control, treated, inhibition, significance)” value is on record?
**A.** Its value is 94%, 100%, -6%, not significant.
